Source: patent US11472845B2, “Antitumor peptide and use thereof” (TOAGOSEI CO., LTD., priority 2019, dated 2022)
Read-outs that look alike come from different tables or passages of the source. Ends that are not written are not given here.

System: human melanoma cell lines (A375)
Assay type: cell-based
Conditions: for Cell viability (%) of test cells: human, 48 h
Protocol: The antitumor activity of Sample 1 synthesized in the above Test Example 1 with respect to human-derived cultured tumor cells was evaluated. Currently commercially available human gastric cancer cell lines (FU97), human alveolar basal epithelial adenocarcinoma cell lines (A549), human breast cancer cell lines (MDA-MB-231), and human melanoma cell lines (A375) were prepared as test tumor cells. In addition, normal human mammary epithelial cell culture lines (MCF-12F) were prepared for comparison. A DMEM culture medium including 50 unit/mL of penicillin, 50 μg/mL of streptomycin, and 10% FBS. The above five types of cell lines were cultured in respective designated culture solutions. The cell lines were cultured so that the number of cells per well in a 96-hole (well) plate was about 5×10^3. Here, an amount of the culture solution per well was 100 μL. The 96-well plate was then placed in a CO2 incubator. Then, pre-incubation was performed under conditions of 37° C. and 5% CO2 for about 1 day (about 23 hours). Then, regarding the culture solution for the peptide addition area, culture solutions containing Sample 1 for each concentration were prepared so that the concentration of Sample 1 was 6.25 μM, 12.5 μM or 25 μM and supplied to wells (that is, wells after the pre-incubation) in which 90 μL of cells to be evaluated were cultured in each well. On the other hand, regarding the culture solution for the comparative test area, a culture solution to which no Sample 1 was added was prepared, and supplied to wells (that is, wells after the pre-incubation) in which 90 μL of cells to be evaluated were cultured in each well. The 96-well plate was then placed in a CO2 incubator, and incubated under conditions of 37° C. and 5% CO2 for 48 hours. After the incubation for 48 hours, the culture solution in each well was replaced with […] a fresh culture solution containing no Sample 1. […] Then, the absorbance at a wavelength of 450 nm (value corrected by the absorbance at a wavelength of 620 nm: A450-A620) was measured based on the reduction of the tetrazolium salt in the culture solution. Then, the cell viability was calculated according to a colorimetric method. In the test areas (test areas 1 to 3) in the peptide addition area, the cell viability of each of the above five types of cell lines was calculated as a relative value when a measured value (measurement absorbance) of the comparative test area in the same cell lines was set as 100%. That is, regarding each of the above five types of cell lines, the cell viability (%) was calculated by dividing the measurement absorbance of the test areas (test areas 1 to 3) in the peptide addition area by the measurement absorbance of the comparative test area in the same cell lines and multiplying by 100.

Substance: MACLGFQRHKAQLNLATRTWPCTLLFFLLFIPVFCKKRTLRKTDRKKR-NH2 (cysteines drawn unpaired) [Sample 1]
- Specific cell viability of test tumor cells (A375, 12.5 μM Sample 1, (cell viability of test tumor cells)/(cell viability of MCF-12F cells)×100): 35.7
- Cell viability (%) of test cells (6.25 μM): 57.8%
- Cell viability (%) of test cells (12.5 μM): 40.8%
- Cell viability (%) of test cells (25 μM): 31.6%
